Source: the NIST ThermoML archive (doi:10.1016/j.jct.2006.09.008)
“And” between values parts separate entries of the source, which are not always exact repeats. Equal values may be shown once. Numbers after ± are expanded uncertainties.

Assay: mn = molality of the nth substance listed, in mol/kg
Conditions: 350 kPa, Liquid

O=[N+]([O-])[O-].O=[N+]([O-])[O-].[Sr+2] [strontium nitrate] + O
mass density [kg/m3]
Conditions | m1 = 0.0499 | m1 = 0.1006 | m1 = 0.2005 | m1 = 0.4995 | m1 = 0.7992 | m1 = 0.9995 | m1 = 1.502 | m1 = 2.003 | m1 = 3.001
278.15 K | 1009 ± 0.18 | 1017.14 ± 0.2 | 1034.72 ± 0.2 | 1082.77 ± 0.23 | 1130.52 ± 0.27 | 1158.71 ± 0.29 | 1231.7 ± 0.37 | 1297.55 ± 0.44 | 1414.38 ± 0.6
283.15 K | 1008.59 ± 0.19 | 1017.1 ± 0.2 | 1033.98 ± 0.2 | 1082.1 ± 0.23 | 1128.88 ± 0.27 | 1157.52 ± 0.29 | 1229.46 ± 0.37 | 1295.12 ± 0.44 | 1411.42 ± 0.6
288.15 K | 1007.84 ± 0.19 | 1016.26 ± 0.19 | 1032.93 ± 0.2 | 1080.71 ± 0.23 | 1126.92 ± 0.27 | 1155.34 ± 0.29 | 1226.86 ± 0.37 | 1292.1 ± 0.44 | 1407.51 ± 0.59
298.15 K | 1005.56 ± 0.19 | 1013.81 ± 0.19 | 1030.24 ± 0.19 | 1077.19 ± 0.23 | 1122.76 ± 0.26 | 1150.87 ± 0.29 | 1221.49 ± 0.36 | 1286.04 ± 0.43 | 1400.33 ± 0.58
308.15 K | 1002.4 ± 0.19 | 1010.56 ± 0.19 | 1026.7 ± 0.19 | 1073.1 ± 0.22 | 1117.95 ± 0.26 | 1146.06 ± 0.28 | 1215.55 ± 0.35 | 1279.41 ± 0.43 | 1393.17 ± 0.58
318.15 K | 998.47 ± 0.18 | 1006.61 ± 0.18 | 1022.45 ± 0.19 | 1068.41 ± 0.22 | 1112.6 ± 0.25 | 1140.61 ± 0.27 | 1209.17 ± 0.35 | 1272.01 ± 0.42 | 1385.59 ± 0.57
328.15 K | 993.97 ± 0.19 | 1001.97 ± 0.18 | 1017.66 ± 0.18 | 1063.12 ± 0.21 | 1106.82 ± 0.25 | 1134.72 ± 0.27 | 1201.99 ± 0.34 | 1264.61 ± 0.41 | 1377.87 ± 0.56
338.15 K | 988.74 ± 0.19 | 996.66 ± 0.18 | 1012.18 ± 0.18 | 1057.26 ± 0.21 | 1100.32 ± 0.24 | 1128.27 ± 0.26 | 1194.55 ± 0.33 | 1256.5 ± 0.4 | 1369.7 ± 0.55
348.15 K | 983.02 ± 0.19 | 990.85 ± 0.18 | 1006.4 ± 0.18 | 1051.04 ± 0.2 | 1094.06 ± 0.24 | 1121.59 ± 0.26 | 1188.05 ± 0.33 | 1249.78 ± 0.39 | 1361.53 ± 0.54
358.15 K | 976.66 ± 0.19 | 984.57 ± 0.19 | 999.95 ± 0.17 | 1044.34 ± 0.2 | 1087.19 ± 0.23 | 1114.51 ± 0.25 | 1180.88 ± 0.32 | 1242.32 ± 0.39 | 1353.05 ± 0.53
368.15 K | 969.9 ± 0.2 | 977.81 ± 0.19 | 993.09 ± 0.18 | 1037.31 ± 0.19 | 1079.94 ± 0.22 | 1107.09 ± 0.25 | 1173.15 ± 0.31 | 1234.38 ± 0.38 | 1344.4 ± 0.52

O=[N+]([O-])[O-].O=[N+]([O-])[O-].[Mn+2] [manganese nitrate] + O
mass density
Conditions | m1 = 0.0248 | m1 = 0.0503 | m1 = 0.0836 | m1 = 0.5132
278.15 K | 1003.65 ± 0.16 kg/m3 | 1007.23 ± 0.17 kg/m3 | 1011.97 ± 0.17 kg/m3 | 1069.81 ± 0.2 kg/m3 and 1069.71 ± 0.2 kg/m3
283.15 K | 1003.3 ± 0.17 kg/m3 | 1006.89 ± 0.17 kg/m3 | 1011.53 ± 0.16 kg/m3 | 1068.8 ± 0.2 kg/m3 and 1068.6 ± 0.2 kg/m3
288.15 K | 1002.66 ± 0.17 kg/m3 | 1006.23 ± 0.16 kg/m3 | 1010.8 ± 0.16 kg/m3 | 1067.5 ± 0.2 kg/m3 and 1067.36 ± 0.2 kg/m3
298.15 K | 1000.56 ± 0.17 kg/m3 | 1004.07 ± 0.16 kg/m3 | 1008.54 ± 0.15 kg/m3 | 1064.29 ± 0.2 kg/m3 and 1064.16 ± 0.2 kg/m3
308.15 K | 997.52 ± 0.17 kg/m3 | 1000.98 ± 0.16 kg/m3 | 1005.36 ± 0.15 kg/m3 | 1060.4 ± 0.19 kg/m3 and 1060.29 ± 0.19 kg/m3
318.15 K | 993.61 ± 0.17 kg/m3 | 997.07 ± 0.16 kg/m3 | 1001.42 ± 0.15 kg/m3 | 1055.86 ± 0.19 kg/m3 and 1055.72 ± 0.19 kg/m3
328.15 K | 988.96 ± 0.17 kg/m3 | 992.44 ± 0.16 kg/m3 | 996.79 ± 0.15 kg/m3 | 1050.75 ± 0.18 kg/m3 and 1050.71 ± 0.18 kg/m3
338.15 K | 983.93 ± 0.17 kg/m3 | 987.31 ± 0.16 kg/m3 | 991.63 ± 0.15 kg/m3 | 1045.39 ± 0.18 kg/m3 and 1045.24 ± 0.18 kg/m3
348.15 K | 978.24 ± 0.18 kg/m3 | 981.59 ± 0.17 kg/m3 | 985.88 ± 0.16 kg/m3 | 1039.4 ± 0.18 kg/m3 and 1039.32 ± 0.18 kg/m3
358.15 K | 972 ± 0.18 kg/m3 | 975.36 ± 0.17 kg/m3 | 979.63 ± 0.16 kg/m3 | 1033.07 ± 0.17 kg/m3 and 1032.97 ± 0.17 kg/m3
368.15 K | 965.29 ± 0.18 kg/m3 | 968.63 ± 0.18 kg/m3 | 972.92 ± 0.17 kg/m3 | 1026.26 ± 0.17 kg/m3 and 1026.2 ± 0.17 kg/m3
